The supplement of paper PMC10627819

Assays:
Assay in all cases: fitness (endpoint OD595 vs no drug) (fraction); higher = more growth
S. pneumoniae D39V = test system: S. pneumoniae D39V
Method in brief: (§1)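 Each well of a 384-well plate received 30 µl of culture at OD595 0.01, or 55 µl for S. pneumoniae. TSB, LB Lennox or CY served as media at 37 °C. OD595 was taken every 30 min for 14 h and corrected by subtracting the first reading. Fitness is the optical density at stationary-phase entry divided by the robust mean of no-drug controls, capped at 1.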

S. aureus Newman = test system: S. aureus Newman
Method in brief: as §1

B. subtilis 168 = test system: B. subtilis 168
Method in brief: as §1

S. aureus DSM 20231 = test system: S. aureus DSM 20231
Method in brief: as §1

C/C(=C\C(=O)OCCCCCCCCC(=O)O)C[C@@H]1OC[C@H](C[C@@H]2O[C@H]2[C@@H](C)[C@H](C)O)[C@@H](O)[C@H]1O [Pseudomonic acid] + C[n+]1ccc(-c2cc[n+](C)cc2)cc1 [Paraquat]
fitness, S. pneumoniae D39V
Settings	partner 1.5 µg/mL	partner 3 µg/mL	partner 6 µg/mL
first compound 0.03 µg/mL	0.988	0.919	0.931
first compound 0.06 µg/mL	0.837	0.78	0.779

fitness, S. aureus Newman, one replicate
Settings	first compound 0.0313 µg/mL	first compound 0.0625 µg/mL	first compound 0.125 µg/mL
partner 1.25 µg/mL	0.0626	0.028	0.0553
partner 2.5 µg/mL	0.0649	0.0373	0.0338
partner 5 µg/mL	0.082	0.0355	0.0668

C/C(=C\C(=O)OCCCCCCCCC(=O)O)C[C@@H]1OC[C@H](C[C@@H]2O[C@H]2[C@@H](C)[C@H](C)O)[C@@H](O)[C@H]1O [Pseudomonic acid] + Cc1onc(-c2ccccc2)c1C(=O)N[C@@H]1C(=O)N2[C@@H]1SC(C)(C)[C@@H]2C(=O)O [Oxacillin]
fitness, S. pneumoniae D39V
Settings	first compound 0.03 µg/mL	first compound 0.06 µg/mL	first compound 0.12 µg/mL
partner 0.01 µg/mL	0.948	0.835	0.589
partner 0.02 µg/mL	0.95	0.819	0.562
partner 0.04 µg/mL	–	0.717	0.424

fitness, S. aureus Newman, one replicate
Settings	first compound 0.0313 µg/mL	first compound 0.0625 µg/mL	first compound 0.125 µg/mL
partner 0.0156 µg/mL	0.058	0.0445	0.0455
partner 0.0312 µg/mL	0.0524	0.0435	0.0505
partner 0.0625 µg/mL	0.0522	0.0224	0.0295

N[C@@H]1CONC1=O [Cycloserine D] + CC(=O)NC[C@H]1CN(c2ccc(N3CCOCC3)c(F)c2)C(=O)O1 [Linezolid]
fitness, one replicate
Settings	first compound 0.125 µg/mL	first compound 0.25 µg/mL	first compound 0.375 µg/mL	first compound 0.5 µg/mL	first compound 0.75 µg/mL	first compound 1.5 µg/mL
B. subtilis 168, partner 0.0625 µg/mL	0.943	0.866	–	0.846	–	–
S. aureus DSM 20231, partner 1 µg/mL	–	–	0.0372	–	0.0417	0.0279

fitness
Settings	first compound 0.125 µg/mL	first compound 0.25 µg/mL	first compound 0.375 µg/mL	first compound 0.5 µg/mL	first compound 0.75 µg/mL	first compound 1.5 µg/mL
B. subtilis 168, partner 0.125 µg/mL	0.566	0.574	–	0.562	–	–
B. subtilis 168, partner 0.25 µg/mL	0.135	0.115	–	0.13	–	–
B. subtilis 168, partner 0.5 µg/mL	0.0466	0.0569	–	0.0486	–	–
S. aureus DSM 20231, partner 0.125 µg/mL	–	–	0.913	–	0.837	0.885
S. aureus DSM 20231, partner 0.25 µg/mL	–	–	0.517	–	0.597	0.537
S. aureus DSM 20231, partner 0.5 µg/mL	–	–	0.162	–	0.168	0.162

N[C@@H]1CONC1=O [Cycloserine D] + CC1(C)S[C@@H]2[C@H](NC(=O)Cc3ccccc3)C(=O)N2[C@H]1C(=O)O [Penicillin G]
fitness, S. aureus Newman
Settings	first compound 0.375 µg/mL	first compound 0.75 µg/mL	first compound 1.5 µg/mL
partner 0.0195 µg/mL	0.966	0.916	0.892
partner 0.039 µg/mL	0.922	0.932	0.957
partner 0.078 µg/mL	0.886	0.923	0.854

N[C@@H]1CONC1=O [Cycloserine D] + C/C(=C\C(=O)OCCCCCCCCC(=O)O)C[C@@H]1OC[C@H](C[C@@H]2O[C@H]2[C@@H](C)[C@H](C)O)[C@@H](O)[C@H]1O [Pseudomonic acid]
fitness, S. aureus Newman, one replicate
Settings	first compound 0.375 µg/mL	first compound 0.75 µg/mL	first compound 1.5 µg/mL
partner 0.0313 µg/mL	0.0489	0.0331	0.0484
partner 0.0625 µg/mL	0.0296	0.0319	0.0149
partner 0.125 µg/mL	0.0371	0.0384	0.031

O=C(N[C@H](CO)[C@H](O)c1ccc([N+](=O)[O-])cc1)C(Cl)Cl [Chloramphenicol] + O=C(O)[C@H]1/C(=C/CO)O[C@@H]2CC(=O)N21 [Clavulanic acid]
fitness, S. aureus Newman, one replicate
Settings	first compound 0.75 µg/mL	first compound 1.5 µg/mL	first compound 3 µg/mL
partner 0.03125 µg/mL	0.891	0.7	0.0864
partner 0.0625 µg/mL	0.889	0.708	–
partner 0.125 µg/mL	0.85	0.494	0.11

CCC[C@@H]1C[C@@H](C(=O)N[C@@H]([C@H]2O[C@H](SC)[C@H](O)[C@@H](O)[C@H]2O)[C@H](C)Cl)N(C)C1 [Clindamycin] + CN(C)[C@@H]1C(O)=C(C(N)=O)C(=O)[C@@]2(O)C(O)=C3C(=O)c4c(O)ccc(Cl)c4[C@@](C)(O)[C@H]3C[C@@H]12 [Chlortetracycline]
fitness, one replicate
Settings	first compound 0.0039 µg/mL	first compound 0.0078 µg/mL	first compound 0.0156 µg/mL	first compound 0.0312 µg/mL	first compound 0.0625 µg/mL	first compound 0.125 µg/mL
B. subtilis 168, partner 0.0475 µg/mL	0.996	0.88	0.814	–	–	–
B. subtilis 168, partner 0.095 µg/mL	0.911	0.831	0.721	–	–	–
B. subtilis 168, partner 0.19 µg/mL	0.779	0.697	0.633	–	–	–
S. aureus DSM 20231, partner 0.006 µg/mL	–	–	–	0.198	0.0507	0.029

Settings	fitness
B. subtilis 168, first compound 0.0625 µg/mL, partner 0.0475 µg/mL	0.407
B. subtilis 168, first compound 0.0625 µg/mL, partner 0.095 µg/mL	0.362
B. subtilis 168, first compound 0.0625 µg/mL, partner 0.19 µg/mL	0.0596
B. subtilis 168, first compound 0.125 µg/mL, partner 0.0475 µg/mL	0.352
B. subtilis 168, first compound 0.125 µg/mL, partner 0.095 µg/mL	0.0555
B. subtilis 168, first compound 0.125 µg/mL, partner 0.19 µg/mL	0.0594
B. subtilis 168, first compound 0.25 µg/mL, partner 0.0475 µg/mL	0.0818
B. subtilis 168, first compound 0.25 µg/mL, partner 0.095 µg/mL	0.0386
B. subtilis 168, first compound 0.25 µg/mL, partner 0.19 µg/mL	0.0515
S. aureus DSM 20231, first compound 0.0312 µg/mL, partner 0.012 µg/mL	0.0617
S. aureus DSM 20231, first compound 0.0312 µg/mL, partner 0.024 µg/mL	0.038
S. aureus DSM 20231, first compound 0.0312 µg/mL, partner 0.048 µg/mL	0.0237
S. aureus DSM 20231, first compound 0.0625 µg/mL, partner 0.012 µg/mL	0.032
S. aureus DSM 20231, first compound 0.0625 µg/mL, partner 0.024 µg/mL	0.0211
S. aureus DSM 20231, first compound 0.0625 µg/mL, partner 0.048 µg/mL	0.0234
S. aureus DSM 20231, first compound 0.125 µg/mL, partner 0.012 µg/mL	0.0303
S. aureus DSM 20231, first compound 0.125 µg/mL, partner 0.024 µg/mL	0.0207
S. aureus DSM 20231, first compound 0.125 µg/mL, partner 0.048 µg/mL	0.0343
S. pneumoniae D39V, first compound 0.0125 µg/mL, partner 0.012 µg/mL	0.511
S. pneumoniae D39V, first compound 0.0125 µg/mL, partner 0.024 µg/mL	0.383
S. pneumoniae D39V, first compound 0.0125 µg/mL, partner 0.048 µg/mL	0.205
S. pneumoniae D39V, first compound 0.015 µg/mL, partner 0.375 µg/mL	0.0214
S. pneumoniae D39V, first compound 0.015 µg/mL, partner 0.75 µg/mL	0.0514
S. pneumoniae D39V, first compound 0.015 µg/mL, partner 1.5 µg/mL	0.0726
S. pneumoniae D39V, first compound 0.025 µg/mL, partner 0.012 µg/mL	0.334
S. pneumoniae D39V, first compound 0.025 µg/mL, partner 0.024 µg/mL	0.216
S. pneumoniae D39V, first compound 0.025 µg/mL, partner 0.048 µg/mL	0.122
S. pneumoniae D39V, first compound 0.03 µg/mL, partner 0.375 µg/mL	0.0643
S. pneumoniae D39V, first compound 0.03 µg/mL, partner 0.75 µg/mL	0.0687
S. pneumoniae D39V, first compound 0.03 µg/mL, partner 1.5 µg/mL	0.0605
S. pneumoniae D39V, first compound 0.05 µg/mL, partner 0.012 µg/mL	0.128
S. pneumoniae D39V, first compound 0.05 µg/mL, partner 0.024 µg/mL	0.13
S. pneumoniae D39V, first compound 0.05 µg/mL, partner 0.048 µg/mL	0.146
S. pneumoniae D39V, first compound 0.06 µg/mL, partner 0.375 µg/mL	0.0503
S. pneumoniae D39V, first compound 0.06 µg/mL, partner 0.75 µg/mL	0.0714
S. pneumoniae D39V, first compound 0.06 µg/mL, partner 1.5 µg/mL	0.0678

O=C(N[C@H](CO)[C@H](O)c1ccc([N+](=O)[O-])cc1)C(Cl)Cl [Chloramphenicol] + CC1(C)S[C@@H]2[C@H](NC(=O)Cc3ccccc3)C(=O)N2[C@H]1C(=O)O [Penicillin G]
fitness, S. aureus Newman
Settings	first compound 0.75 µg/mL	first compound 1.5 µg/mL	first compound 3 µg/mL
partner 0.0195 µg/mL	0.744	0.494	0.187
partner 0.039 µg/mL	0.742	0.475	0.173
partner 0.078 µg/mL	0.72	0.477	0.181
